# In patent US6670334B2, “Method and compositions for treating the inflammatory response” (University of Virginia Patent Foundation, priority 2001, dated 2003):
# What was measured:
# [1] = system: PMN; experiment: TNF-stimulated PMN adherence to a fibrinogen-coated surface; assay type: cell-based, human
# Method: PMN adherence to fibrinogen was measured as follows as adapted from Hanlon, J. Leukocyte Biol., 50, 43 (1991). Twenty-four well flat-bottomed tissue culture plates were incubated (37° C.) overnight with 0.5 ml of fibrinogen (5 mg/ml) dissolved in 1.5% NaHCO3. The plates were emptied and each well washed 2× with 1 ml of normal saline. The wells were then filled with 1 ml of HBSS-0.1% human serum albumin containing PMN (1×10^6/ml) with and without rhTNFα (1 U/ml), adenosine deaminase (ADA) (1 U/ML), WRC-0474[SHA 211] (10 nM), CGS21680 (30 nM), adenosine (100 nM) and rolipram (100 nM). The plates were incubated for 90 minutes at 37° C. in 5% CO2. Following incubation the tissue culture wells were washed free of non-adherent cells with normal saline. The adherent monolayer of PMN was lysed with 0.1% triton-X, the amount of lactic dehydrogenase (LDH) released from the monolayer assayed (LDH kit, Sigma Co., St. Louis, Mo.), and compared to a standard curve relating the LDH content to PMN numbers.
# [2] = system: human neutrophils; experiment: Neutrophil oxidative activity (luminol-enhanced chemiluminescence), TNF/f-met-leu-phe stimulation; assay type: cell-based; settings: TNF-alpha 10 U/ml primed, fMLP 1 μM stimulated, ADA 1 Units/ml, FIG. 13, read-out: EC50 for decreasing neutrophil oxidative activity
# Excerpt: A2A agonists blocking of neutrophil oxidative activity. […] This was detected by luminol-enhanced chemiluminescence. The EC50's were lower for the ester when compared to its acid.
# A one-step Ficoll-Hypaque separation procedure (Ferrante and Thong, 1980) was used to purify human neutrophils from normal heparinized (10 Units/ml) of venous blood yielding approximately 98% neutrophils; having about >95% viable as determined with trypan blue containing <50 pg/ml of endotoxin. Following separation, the neutrophils were washed with Hank's balanced salt solution (HBSS) three times.
# Neutrophil oxidative activity (luminol-enhanced chemiluminescence): The activated neutrophils emit light from unstable high-energy oxygen species produced by the plasma membrane associated NADPH oxidase and metabolized by cytoplasmic and granule enzymes. The light signal from activated neutrophils can be enhanced by the addition of luminol to the samples. […]
# The purified neutrophils (1×10^6/ml) were incubated in HBSS containing 0.1% HSA (1 ml), plus adenosine deaminase (1 Units/ml), ±JR2171 or ±CGS21680, and with TNF-alpha (10 U/ml) for 30 min at 37° C. in a shaking water bath. Then luminol ([…]) enhanced f-met-leu-phe (1 μM)-stimulated chemiluminescence was read with a Chronolog Photometer (Chronolog Corp., Havertown, Pa.) at 37° C. for 8 min. […]
# [3] = target: recombinant human A2A adenosine receptors (Homo sapiens, UniProt P29274); experiment: Radioligand binding assay, competition for 125I-ZM241385
# [4] = system: Adult wistar rats with bacteria meningitis (BM); experiment: Rat model of inflammation (bacteria meningitis): CSF WBC pleocytosis and blood-brain barrier permeability; assay type: in vivo
# Method: Effects of WRC-0470 and rolipram on the extravasation of white blood cells in a rat model of inflammation. Adult wistar rats (approximately 200 g) were anesthetized with intermuscular injections of ketamine and xylazine. Bacteria meningitis (BM) was introduced via intracistemal inoculation of either E. coli strain 026:B6LPS (200 ng), cytokines (IL-1 and TNFα or LPS plus cytokines). The animals were then infused with rolipram and/or WRC-1470 over the duration of the experiment using a Harvard pump. CSF (cerebrospinal fluid) and blood was then sampled at 4 h post-inoculation and alterations in BBBP (blood-brain barrier permeability) and WBC (white blood cell) counts were determined. CSF and WBC concentrations were determined with standard hemacytometer methods. For assessment of % BBBP, rats were given an intravenous injection of 5 μCi 125I-labeled bovine serum albumin concomitant with intracistemal inoculation. Equal samples of CSF and blood were read simultaneously in a gamma counter and after subtraction of background radioactivity, % BBBP was calculated by the following formula: % BBBP=(cpm CSF/cpm blood)×100. All statistical tests were performed using Instat biostatistical software to compare the post-inoculation samples of experimental rats with the control rats. The statistical tests used to generate p-values were Student's t-test and ANOVA.
# [5] = system: Human PMN adherent to fibrinogen; experiment: TNFα-stimulated superoxide release of PMN adherent to a fibrinogen coated surface; assay type: cell-based; settings: rolipram 100 nM; WRC-0474[SHA 211] 30-300 nM, other agonists 300 nM; p<0.05; FIG. 5
# [6] = system: human adherent monocytes; experiment: Production of TNFα by purified human adherent monocytes (endotoxin-stimulated, ELISA); assay type: cell-based; settings: ZM241385 50 nM; p=0.020; FIG. 7B
# Method: Production of TNFα by purified human adherent monocytes. A monocyte rich monolayer (>95% monocytes) was prepared by incubating 1 ml of the mononuclear leukocyte fraction (5×10^5/ml) from a Ficoll-Hypaque separation in wells of a 24 well tissue culture plate (1 hr; 37° C.; 5% CO2). […] The samples were incubated for 4 hr (37° C.; 5% CO2) and the supernatants harvested. Any suspended cells were removed by centrifugation and the cell-free samples frozen (−70° C.). TNFα was assayed in the cell-free supernatants by an ELISA kit (Cistron Biotechnology, Pine Brook, N.J.).
# Sequence of recombinant human A2A adenosine receptors (P29274 whole entry): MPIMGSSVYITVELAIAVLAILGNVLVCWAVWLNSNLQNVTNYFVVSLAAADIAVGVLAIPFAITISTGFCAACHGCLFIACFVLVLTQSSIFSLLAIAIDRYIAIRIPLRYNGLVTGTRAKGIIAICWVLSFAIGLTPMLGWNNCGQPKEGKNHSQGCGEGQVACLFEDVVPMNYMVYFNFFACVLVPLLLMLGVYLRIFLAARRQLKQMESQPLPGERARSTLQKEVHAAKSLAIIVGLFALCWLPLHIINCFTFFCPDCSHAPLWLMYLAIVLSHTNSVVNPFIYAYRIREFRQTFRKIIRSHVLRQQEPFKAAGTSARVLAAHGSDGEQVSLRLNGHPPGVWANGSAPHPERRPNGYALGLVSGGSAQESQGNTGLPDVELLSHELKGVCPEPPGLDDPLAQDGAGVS
structure (smiles),measurement,setting,value
"CCNC(=O)C1OC(n2cnc3c(N)nc(NCCc4ccc(CCC(=O)O)cc4)nc32)C(O)C1O (stereo not drawn) [CGS21680, 3-(4-{2-[6-amino-9-(5-ethylcarbamoyl-3,4-dihydroxy-tetrahydro-furan-2-yl)-9H-purin-2-ylamino]-ethyl}-phenyl)-propionic acid]","TNF-stimulated PMN adherence, % adhered","[1]; 30 nM, in the presence of ADA, TNF+ADA control 38%, p=0.004",30%
same,EC50,[2],2.09 nM
"CCNC(=O)C1OC(n2cnc3c(N)nc(NCCc4ccc(CCC(=O)OC)cc4)nc32)C(O)C1O (stereo not drawn) [JR2171, 3-(4-{2-[6-Amino-9-(5-ethylcarbamoyl-3,4-dihydroxy-tetrahydro-furan-2-yl)9H-purin-2-ylamino]-ethyl}-phenyl)-propionic acid methyl ester]",EC50,[2],0.371 nM
same,Ki,[3],45 nM
"COc1ccc(C2CNC(=O)C2)cc1OC1CCCC1 (stereo not drawn) [Rolipram, 4-(3-cyclopentyloxy-4-methoxyphenyl)-2-pyrrolidone]",alterations of BBBP,[4]; 0.002 μg/kg/hr,no significant effect
same,inhibition of CSF pleocytosis,"[4]; 0.01 μg/kg/hr, p<0.05, FIG. 10",99%
same,alterations of BBBP,"[4]; 0.01 or 0.005 μg/kg/hr, p<0.05",significant inhibition
same,WBC migrated into the sub-arachnoid space (CSF WBC),"[4]; rolipram alone (0.001 μg/kg/hr), p<0.050","1,670±1,273 WBC/μl"
Nc1nc(OCCc2ccc3ccccc3c2)nc2c1ncn2[C@@H]1O[C@H](CO)[C@@H](O)[C@H]1O [WRC-0018],"TNFα-stimulated adherent PMN superoxide release, agonist combined with rolipram",[5],synergistically decreased superoxide release
Cc1ccc(CCOc2nc(N)c3ncn([C@@H]4O[C@H](CO)[C@@H](O)[C@H]4O)c3n2)cc1 [WRC-0090],"TNFα-stimulated adherent PMN superoxide release, agonist combined with rolipram",[5],synergistically decreased superoxide release
"Nc1nc(NCCc2ccc(O)cc2)nc2nc(-c3ccco3)nn12 [ZM241385, 4-(2-[7-amino-2-(2-furyl)[1,2,4]-triazolo[2,3a]-[1,3,5]trazinyl-amino]ethyl)-phenol]",antagonism of the effect of WRC-0470 (300 nM) combined with rolipram (300 nM) on TNFα release from monocytes,[6],significantly inhibited the effect
Nc1ncnc2c1ncn2[C@@H]1O[C@H](CO)[C@@H](O)[C@H]1O [adenosine],"TNF-stimulated PMN adherence, % adhered","[1]; 100 nM, p=0.009 compared to TNF in the presence of ADA",28%
